In BindingDB's records for doi:10.1016/j.ejmech.2023.115129 (n/a, 2023):
pIC50: −log10 of the molar value.

Target: Replicase polyprotein 1ab (Severe acute respiratory syndrome coronavirus 2, UniProt P0DTD1)
Test: Inhibition of full-length recombinant SARS-CoV-2 3CL protease expressed in Escherichia coli BL21 (DE3) cells using fluorogenic MCA-AVLQSGFR-Lys (Dnp)-Lys-NH2 substrate preincubated for 10 mins followed by substrate addition measured for 3.5 mins by FRET assay

`C/N=c1\nc(-c2ccc(OC)c(OC)c2)n(-c2ccc(F)cc2)s1` showed a pIC50 of 6.60.
